Data reported in patent US4975531A, “Sakyomicin E and the derivatives thereof, a process for the preparation thereof and the use thereof” (Behringwerke Aktiengesellschaft, priority 1988, dated 1990).

Legend:
[1] = tested on: L1210 cells; experiment: Proliferation test (MTT assay), L1210; format: cell-based, murine; conditions: 72 hours
Method: (§1) The cytotoxic activity of the compounds according to the invention was measured in two different in vitro test systems.
(§2) 1. Proliferation test (MTT assay)
(§3) In this test system, the number of live or dead cells after incubation with the test substance for 3 days is measured by means of the NADP-dependent reduction of a colorless substrate to give a deep red-colored final product, which occurs only in live cells.
(§4) Control experiments contain merely growth medium in place of the test substance. Quadruplicate determinations were set up for each test substance and for the controls. After incubation for 65 hours, 50 μl of an MTT solution (2.5 mg/ml in phosphate buffered saline) are added. In the presence of live cells MTT is reduced to a dark-red insoluble formazan pigment. […] The insoluble pigment is dissolved by addition of 100 μl of DMSO, and the extinction of the solution produced in this way is subsequently measured for each well in a Multiscan photometer 340 CC from Flow at a wavelength of 492 nm.

[2] = tested on: A 549 cells; experiment: Proliferation test (MTT assay), A 549; format: cell-based, human; conditions: A 549, MTT, 72 hours
Method: as §1, §2, §3, §4

[3] = tested on: HT 29 cells; experiment: Proliferation test (MTT assay), HT 29; format: cell-based, human; conditions: HT 29, MTT, 72 hours
Method: as §1, §2, §3, §4

[4] = tested on: tumor cell colonies; experiment: Stem Cell Test (inhibition of tumor cell colony formation in soft agar); format: cell-based; conditions: cell line not given; for IC50 Cont. incubation (colony formation in soft agar): continuous incubation
Method: as §1
This test system examines the ability of the test substance to inhibit the formation of tumor cell colonies in soft agar. The test was carried out by the method described by Hamburger and Salmon, with the modifications described below. Conditioned medium was replaced by McCoy 5A medium. […] The cells were incubated with various concentrations of the test substance at 37° C. for 1 hour. The cells were then washed twice with McCoy 5A medium and then plated out as the upper layer in a two-layer agar system in accordance with the Hamburger and Salmon method. Additional parallel experiments were carried out using a continuous incubation time, in which case various concentrations of the test substance were mixed with the upper agar layer before plating out the cells.
After this time, colonies with a diameter of (greater than) 60 μm were counted using an image analysis system (FAS II, Bausch and Lomb).
The IC50 for continuous and one-hour incubation was determined from the dose-effect plot (Tab. 2).

[5] = tested on: E. coli; experiment: antibacterial effect in vitro, agar plate diffusion test, E. coli; format: cell-based; conditions: agar plate diffusion test (10 μl/test disk 6 mm in diameter)
Method: (§5) Examples of various organisms which emerge as sensitive to an inhibitory concentration of greater than 10 μg/ml are: E. coli, Staph. aureus, Strep. faecalis.

[6] = tested on: Staph. aureus; experiment: antibacterial effect in vitro, agar plate diffusion test, Staph. aureus; format: cell-based; conditions: agar plate diffusion test (10 μl/test disk 6 mm in diameter)
Method: as §5

[7] = tested on: Strep. faecalis; experiment: antibacterial effect in vitro, agar plate diffusion test, Strep. faecalis; format: cell-based; conditions: agar plate diffusion test (10 μl/test disk 6 mm in diameter)
Method: as §5

[8] = tested on: Gram-positive and Gram-negative bacteria; experiment: antibacterial effect in vitro against Gram-positive and Gram-negative bacteria, agar plate diffusion test; format: cell-based
Method: as §5

[9] = tested on: human and animal tumor cells; experiment: tumor-inhibiting effect in vitro; format: cell-based
[10] = solubility; format: physicochemical
[11] = stability; format: physicochemical

Substance | IC50 L1210 (concentration which just kills 50% of the cells) [1] [µg/mL] | IC50 A 549 (concentration which just kills 50% of the cells) [2] [µg/mL] | IC50 HT 29 (concentration which just kills 50% of the cells) [3] [µg/mL] | IC50 1 h incubation (colony formation in soft agar) [4] | IC50 Cont. incubation (colony formation in soft agar) [4] [µg/mL] | inhibitory concentration, E. coli [5] | inhibitory concentration, Staph. aureus [6] | inhibitory concentration, Strep. faecalis [7] | antibacterial effect against Gram-positive and Gram-negative bacteria [8] | tumor-inhibiting effect in vitro [9] | solubility in alkanes ([10]; alkanes) | solubility in ethyl acetate, methanol, acetone, DMSO and chloroform ([10]; ethyl acetate, methanol, acetone, DMSO and chloroform) | stability in solution ([11]; in solution in the pH range from 3 to 9, especially from 5 to 8) | stability in the solid state ([11]; solid state)
2,8,4'-tri-O-acetylsakyomicin E | 0.29 | 0.37 | 0.11 | above 1.0 μg/ml | 0.30 | – | – | – | – | – | – | – | – | –
sakyomicin E | 0.50 | 0.30 | 0.08 | 3.0 µg/mL | 0.24 | greater than 10 μg/ml | greater than 10 μg/ml | greater than 10 μg/ml | exhibits an antibacterial effect | tumor-inhibiting effect | insoluble or only very slightly soluble | readily soluble | stable | stable
